Values of other authors as cited in patent US4530920A, “Nonapeptide and decapeptide analogs of LHRH, useful as LHRH agonist” (Syntex (U.S.A.) Inc., priority 1983, dated 1985).

Test system: LHRH activity
Conditions: 6-position Gly replaced by a D-amino acid; literature

Row | Substance | activity relative to LH-RH
1 | [D Ala^6 ]-LHRH | increased activity relative to LH-RH
2 | [D-Leu^6 ]LHRH | increased activity relative to LH-RH
3 | [D-Phe^6 ]LHRH | increased activity relative to LH-RH
4 | [D-Trp^6 ]LHRH | increased activity relative to LH-RH

Same assay, conditions: relative to LHRH; from Rivier et al. 1975 and Vale et al. 1979

Row | Substance | potency (times LHRH)
5 | [D-Arg^6 ]LHRH | 3.9 times LHRH
6 | [D-Arg^6, Pro^9 -NHEt]LHRH | 16.7 times LHRH
7 | [D-LYS^6]LHRH | 3.8 times LHRH
8 | [D-Trp^6 ]LHRH | 36 times LHRH
9 | [D-Trp^6, Pro^9 -NHEt]LHRH | 144 times LHRH
